Experimental data taken from ChEMBL document CHEMBL3885881, “DrugMatrix”.

Species on record: Rattus norvegicus
Assay: DrugMatrix - Regimen: Daily Repeat
Assay type: toxicity, organism-based, Sprague-Dawley
Set-up: regimen Daily Repeat, gender Male, age 6-8 weeks
Conditions: in vivo, po, route oral GAVAGE, vehicle .5 % CMC; for ABSOLUTE BASOPHIL / ABSOLUTE EOSINOPHIL / ABSOLUTE LYMPHOCYTE / ABSOLUTE MONOCYTE / ABSOLUTE SEGMENTED NEUTROPHIL / BASOPHIL / EOSINOPHIL / ERYTHROCYTE COUNT / HEMATOCRIT / HEMOGLOBIN / LEUKOCYTE COUNT / LYMPHOCYTE / MEAN CORPUSCULAR HEMOGLOBIN / MEAN CORPUSCULAR HEMOGLOBIN CONCENTRATION / MEAN CORPUSCULAR VOLUME / MONOCYTE / NEUTROPHIL / NUCLEATED RED BLOOD CELLS / PLATELET COUNT: tissue Blood; for ALANINE AMINOTRANSFERASE / ALBUMIN / ALKALINE PHOSPHATASE / ASPARTATE AMINOTRANSFERASE / BLOOD UREA NITROGEN / CARBON DIOXIDE / CHLORIDE / CHOLESTEROL / CREATINE PHOSPHOKINASE / CREATININE / GLUCOSE / LACTATE DEHYDROGENASE / LIPASE / PHOSPHORUS / POTASSIUM / SODIUM / TOTAL BILIRUBIN / TOTAL PROTEIN / URIC ACID: tissue Plasma
[1] = 50 mg/kg, 120 h, dose level Low, time 5 day
[2] = 500 mg/kg, 72 h, dose level High, time 3 day
[3] = 500 mg/kg, 120 h, dose level High, time 5 day

CC1(C)[C@H]2CC[C@]1(C)C(=O)C2 [(-)-CAMPHOR]
ABSOLUTE BASOPHIL [1]: 0 CELLS/uL
ABSOLUTE EOSINOPHIL [1]: 46.67 CELLS/uL
ABSOLUTE LYMPHOCYTE [1]: 13460 CELLS/uL
ABSOLUTE MONOCYTE [1]: 0 CELLS/uL
ABSOLUTE SEGMENTED NEUTROPHIL [1]: 2360 CELLS/uL
BASOPHIL [1]: 0%
EOSINOPHIL [1]: 0.33%
ERYTHROCYTE COUNT [1]: 5.24 x10E6/uL
HEMATOCRIT [1]: 32.6%
HEMOGLOBIN [1]: 12.5 G/DL
LEUKOCYTE COUNT [1]: 15.87 x10E3/uL
LYMPHOCYTE [1]: 86.33%
MEAN CORPUSCULAR HEMOGLOBIN [1]: 23.9 pg
MEAN CORPUSCULAR HEMOGLOBIN CONCENTRATION [1]: 38.33 G/DL
MEAN CORPUSCULAR VOLUME [1]: 62.27 fL
MONOCYTE [1]: 0%
NEUTROPHIL [1]: 13.33%
NUCLEATED RED BLOOD CELLS [1]: 0 /100WBC
PLATELET COUNT [1]: 1253.67 x10E3/uL
ALANINE AMINOTRANSFERASE [1]: 61.33 u/L
ALBUMIN [1]: 4.37 G/DL
ALKALINE PHOSPHATASE [1]: 416.33 u/L
ASPARTATE AMINOTRANSFERASE [1]: 88.33 u/L
BLOOD UREA NITROGEN [1]: 18.67 mg/dL
CARBON DIOXIDE [1]: 22.67 mmol/L
CHLORIDE [1]: 102.67 MEQ/L
CHOLESTEROL [1]: 64.33 mg/dL
CREATINE PHOSPHOKINASE [1]: 328 u/L
CREATININE [1]: 0.25 mg/dL
GLUCOSE [1]: 194.33 mg/dL
LACTATE DEHYDROGENASE [1]: 167.67 u/L
LIPASE [1]: 9 u/L
PHOSPHORUS [1]: 12.53 mg/dL
POTASSIUM [1]: 6.26 MEQ/L
SODIUM [1]: 143.3 MEQ/L
TOTAL BILIRUBIN [1]: 0.17 mg/dL
TOTAL PROTEIN [1]: 6.13 G/DL
URIC ACID [1]: 2.63 mg/dL
ABSOLUTE BASOPHIL [2]: 0 CELLS/uL
ABSOLUTE EOSINOPHIL [2]: 155.67 CELLS/uL
ABSOLUTE LYMPHOCYTE [2]: 12828.67 CELLS/uL
ABSOLUTE MONOCYTE [2]: 0 CELLS/uL
ABSOLUTE SEGMENTED NEUTROPHIL [2]: 1649 CELLS/uL
BASOPHIL [2]: 0%
EOSINOPHIL [2]: 1%
ERYTHROCYTE COUNT [2]: 5.48 x10E6/uL
HEMATOCRIT [2]: 34.93%
HEMOGLOBIN [2]: 13.23 G/DL
LEUKOCYTE COUNT [2]: 14.63 x10E3/uL
LYMPHOCYTE [2]: 88.33%
MEAN CORPUSCULAR HEMOGLOBIN [2]: 24.13 pg
MEAN CORPUSCULAR HEMOGLOBIN CONCENTRATION [2]: 37.9 G/DL
MEAN CORPUSCULAR VOLUME [2]: 63.7 fL
MONOCYTE [2]: 0%
NEUTROPHIL [2]: 10.67%
NUCLEATED RED BLOOD CELLS [2]: 0 /100WBC
PLATELET COUNT [2]: 1178.33 x10E3/uL
ALANINE AMINOTRANSFERASE [2]: 50.67 u/L
ALBUMIN [2]: 4.3 G/DL
ALKALINE PHOSPHATASE [2]: 369.33 u/L
ASPARTATE AMINOTRANSFERASE [2]: 74.67 u/L
BLOOD UREA NITROGEN [2]: 14 mg/dL
CARBON DIOXIDE [2]: 26.67 mmol/L
CHLORIDE [2]: 100.33 MEQ/L
CHOLESTEROL [2]: 67.67 mg/dL
CREATINE PHOSPHOKINASE [2]: 382.33 u/L
CREATININE [2]: 0.15 mg/dL
GLUCOSE [2]: 154 mg/dL
LACTATE DEHYDROGENASE [2]: 99 u/L
LIPASE [2]: 9 u/L
PHOSPHORUS [2]: 12.53 mg/dL
POTASSIUM [2]: 6.1 MEQ/L
SODIUM [2]: 145.07 MEQ/L
TOTAL BILIRUBIN [2]: 0.2 mg/dL
TOTAL PROTEIN [2]: 5.93 G/DL
URIC ACID [2]: 1.47 mg/dL
ABSOLUTE BASOPHIL [3]: 0 CELLS/uL
ABSOLUTE EOSINOPHIL [3]: 124.33 CELLS/uL
ABSOLUTE LYMPHOCYTE [3]: 12652.67 CELLS/uL
ABSOLUTE MONOCYTE [3]: 0 CELLS/uL
ABSOLUTE SEGMENTED NEUTROPHIL [3]: 1356.33 CELLS/uL
BASOPHIL [3]: 0%
EOSINOPHIL [3]: 1%
ERYTHROCYTE COUNT [3]: 5.72 x10E6/uL
HEMATOCRIT [3]: 37.43%
HEMOGLOBIN [3]: 14.2 G/DL
LEUKOCYTE COUNT [3]: 14.13 x10E3/uL
LYMPHOCYTE [3]: 89.67%
MEAN CORPUSCULAR HEMOGLOBIN [3]: 24.83 pg
MEAN CORPUSCULAR HEMOGLOBIN CONCENTRATION [3]: 37.93 G/DL
MEAN CORPUSCULAR VOLUME [3]: 65.4 fL
MONOCYTE [3]: 0%
NEUTROPHIL [3]: 9.33%
NUCLEATED RED BLOOD CELLS [3]: 0 /100WBC
PLATELET COUNT [3]: 1132 x10E3/uL
ALANINE AMINOTRANSFERASE [3]: 46.67 u/L
ALBUMIN [3]: 4.47 G/DL
ALKALINE PHOSPHATASE [3]: 355.33 u/L
ASPARTATE AMINOTRANSFERASE [3]: 67.33 u/L
BLOOD UREA NITROGEN [3]: 15 mg/dL
CARBON DIOXIDE [3]: 26.67 mmol/L
CHLORIDE [3]: 101 MEQ/L
CHOLESTEROL [3]: 59 mg/dL
CREATINE PHOSPHOKINASE [3]: 203.33 u/L
CREATININE [3]: 0.17 mg/dL
GLUCOSE [3]: 169.67 mg/dL
LACTATE DEHYDROGENASE [3]: 99.33 u/L
LIPASE [3]: 9 u/L
PHOSPHORUS [3]: 12.5 mg/dL
POTASSIUM [3]: 7.1 MEQ/L
SODIUM [3]: 145.87 MEQ/L
TOTAL BILIRUBIN [3]: 0.2 mg/dL
TOTAL PROTEIN [3]: 6.37 G/DL
URIC ACID [3]: 1.77 mg/dL
